# Results reported in paper PMC12926254, “Novel pyrazole carboxylate derivatives as lonazolac bioisosteres with selective COX-2 inhibition: design, synthesis and anti-inflammatory activity” (Molecular Diversity, 2025).
# Like-named read-outs stand apart in the source and are kept apart here. Marks after values point to notes of the source that are not given here.
# Columns and labels:
# gastric mucosa = test: Ulcerogenic liability (ulcer index); format: in vivo; conditions: 50 mg/kg orally, three successive days, rats
# Method: […]. […] Rats were divided into 7 groups and fasted for 18 h before drug administration. The control group received the vehicle (2.5% Tween 80). […] After 2 h, animals were fed. Rats were given the required dose orally for three successive days. After 2 h of the last dose, rats were sacrificed; the stomach of each rat was removed then opened along the greater curvature and rinsed with saline. In order to examine the stomach, it was stretched by pins on a corkboard. The gastric mucosa was carefully inspected for the occurrence of ulcers with the aid of an illuminated magnifying lens (l0x), then ulcer index was calculated according to the method described by Cho and Ogle. Lesions were counted and measured along the greater diameter using transparent ruler. Every five hemorrhagic spots were considered equivalent to 1 mm of ulcer. The ulcer index (mm) was calculated from the sum of the total length of ulcers and hemorrhagic spots in each stomach.
# MTS cytotoxicity assay = format: cell-based; conditions: mouse, RAW 264.7 macrophages (heading: LPS-induced), read-out: Cytotoxicity IC50 (LPS-induced RAW 264.7 cells)
# Method: Using Dulbecco’s Modified Eagle Medium (DMEM, Biowest L0060) supplemented with 10% foetal bovine serum (FBS) (Biowest, S1810) and 1% anti-biotic and anti-mycotic (Biowest, L0010-100), the RAW264.7 macrophage cell line (ATCC ® TIB-71TM) was cultivated. The cells were then incubated at 37 °C with 5% CO2 until they were confluent, which should be between 70 and 80%. After two to three days, the growth media was regularly changed. Trypsin–EDTA was then used to wash and collect the cells (Biowest, L0931-500).
# The MTS (3-(4,5-dimethylthiazol-2-yl)-5-(3-carboxymethoxy-phenyl)-2-(4-sulfophenyl)-2H-tetrazolium) test (Promega, ab197010) was used to determine cell viability. In short, a 96-well plate was seeded with 5 × 10^3 cells per well, and the cells were then incubated for 24 h at 37 °C and 5% CO2. The cells were then re-incubated for 24 h at 37 °C and 5% CO2 after the medium was discarded and replaced with 180 µl of fresh growth media and 20 µl of sample (1000 ug, 250 ug, 63 ug, 16 ug, and 4 ug µg/mL). 20 µl of MTS was then added to each well, and the mixture was incubated for three hours at 37 °C with 5% CO2. […] Control cells were those that received no treatment.
# [1] = tested on: carrageenan-induced rat paw edema; test: Carrageenan-induced rat paw edema assay; format: in vivo; conditions: for Paw edema thickness ± SEM / Paw edema % inhibition: rat
# Method: As previously described, paw thickness was evaluated at 1, 3, and 5 h following carrageenan injection at a dose of 50 mg/kg.
# [2] = tested on: carrageenan-induced rat paw edema; test: Carrageenan-induced rat paw edema assay; format: in vivo; conditions: 25 mg/kg
# iNOS = test: Inducible nitric oxide synthase (iNOS) inhibition in LPS-induced RAW 264.7 cells (ELISA); format: cell-based; conditions: Mus musculus, RAW264.7
# Source text: NO is produced from L-arginine by iNOS and is utilized in a variety of cell signaling processes. An inducible member of the NOS family, iNOS is increased during pro-inflammatory cytokine activity as a host-defense mechanism. A commercially available quantitative ELISA kit (ab253219 Mouse iNOS Simple Step ELISA® Kit) will be used to evaluate the iNOS enzyme activity of the substances in the cell lysate in accordance with the manufacturer’s instructions.
# PGE2 [3] = test: PGE2 production in LPS-activated RAW 264.7 macrophages (ELISA); conditions: Mus musculus, RAW264.7, read-out: PGE2 IC50
# TNF-α = TNF-α production in LPS-activated RAW 264.7 macrophages (ELISA); conditions: Mus musculus, RAW264.7, read-out: TNF-α IC50
# COX-2 [4] = target: T1, COX-2 (Homo sapiens, UniProt P35354); conditions: cited from earlier work
# T1 construct: purchased Biovision K547
# T1 sequence (P35354 18-604): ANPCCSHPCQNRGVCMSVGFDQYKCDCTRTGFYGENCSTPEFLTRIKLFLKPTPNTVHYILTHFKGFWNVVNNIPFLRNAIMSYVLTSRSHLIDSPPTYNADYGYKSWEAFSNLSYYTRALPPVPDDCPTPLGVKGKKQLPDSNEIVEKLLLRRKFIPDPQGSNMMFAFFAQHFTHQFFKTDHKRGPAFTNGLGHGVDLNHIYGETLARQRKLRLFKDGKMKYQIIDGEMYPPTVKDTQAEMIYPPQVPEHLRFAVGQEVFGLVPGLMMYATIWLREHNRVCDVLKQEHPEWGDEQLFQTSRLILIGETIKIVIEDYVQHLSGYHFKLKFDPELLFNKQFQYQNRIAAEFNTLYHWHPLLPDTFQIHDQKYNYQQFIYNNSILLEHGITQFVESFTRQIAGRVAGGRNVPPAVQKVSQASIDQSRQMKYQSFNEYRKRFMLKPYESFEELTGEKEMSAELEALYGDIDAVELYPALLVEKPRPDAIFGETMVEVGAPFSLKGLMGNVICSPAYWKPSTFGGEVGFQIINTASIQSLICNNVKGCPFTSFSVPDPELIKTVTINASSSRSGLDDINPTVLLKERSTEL
# PGE2 [5] = tested on: PGE2; design: method as in PMID 36166898; conditions: LPS-stimulated RAW cells; cited from earlier work
# COX-2 [6] = target: T1, COX-2; test: In vitro COX-2 inhibition (COX-2 Inhibitor Screening Kit-K547, Biovision); format: biochemical; conditions: for COX-2 S.I.: COX-1 IC50/COX-2 IC50; for IC50: mean of six values ± standard deviation
# Method: (§1) The IC50 value of the tested compounds was determined.
# COX-2 inhibitor Screening Protocol: Dissolve the tested compounds in DMSO. Use COX Assay Buffer to dilute the relevant test concentration by 10X before using. Place 10 µl of diluted test inhibitor or Assay Buffer in the specified wells instead of the sample screen (S) or enzyme control (EC; no inhibitor). […] Before using, combine 2 µl of COX Cofactor with 398 µl of COX Assay Buffer to dilute COX Cofactor 200 times. Blend thoroughly. Just before using, mix 5 µl of the provided arachidonic acid with 5 µl of NaOH to make the arachidonic acid solution. Combine quickly using a vortex. To dilute the arachidonic acid/NaOH solution 10 times, add 90 µl of water. There should be 80 µl of reaction mix in each well. Using a multi-channel pipette, add 10 µl of diluted arachidonic acid/NaOH solution into each well to initiate the reactions concurrently.
# COX-1 = target: T2, COX-1 (Ovis aries, UniProt P05979); test: In vitro COX-1 inhibition (COX-1 Inhibitor Screening Kit-K548, Biovision); format: biochemical; conditions: mean of six values ± standard deviation
# T2 construct: purchased Biovision K548
# T2 sequence (P05979 25-600): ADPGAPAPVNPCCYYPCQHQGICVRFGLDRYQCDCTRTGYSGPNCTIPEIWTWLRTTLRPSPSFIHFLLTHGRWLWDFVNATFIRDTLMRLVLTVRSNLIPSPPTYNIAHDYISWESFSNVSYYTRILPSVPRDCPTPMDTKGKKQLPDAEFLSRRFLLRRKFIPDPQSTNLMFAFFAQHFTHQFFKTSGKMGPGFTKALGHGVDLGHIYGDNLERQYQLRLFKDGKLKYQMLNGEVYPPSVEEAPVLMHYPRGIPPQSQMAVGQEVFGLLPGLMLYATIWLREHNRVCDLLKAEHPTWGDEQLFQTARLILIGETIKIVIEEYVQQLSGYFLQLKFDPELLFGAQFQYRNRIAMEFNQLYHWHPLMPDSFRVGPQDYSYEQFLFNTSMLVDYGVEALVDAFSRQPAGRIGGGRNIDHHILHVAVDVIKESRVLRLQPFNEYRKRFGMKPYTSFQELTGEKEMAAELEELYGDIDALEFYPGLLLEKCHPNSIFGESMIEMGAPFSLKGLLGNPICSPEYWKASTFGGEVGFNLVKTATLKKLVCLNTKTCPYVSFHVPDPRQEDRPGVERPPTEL
# Method: as §1
# COX-1 inhibitor Screening Protocol: Dissolve the tested compounds in DMSO. Use COX assay buffer to dilute the relevant test concentration by 10X before using. Place 10 µl of diluted test inhibitor or assay buffer in the specified wells instead of the sample screen (S) or enzyme control (EC; no inhibitor). To one of the wells, add 2 µl of SC560 and 8 µl of COX Assay Buffer as an inhibitor control (IC). Before using, combine 2 µl of COX Cofactor with 398 µl of COX Assay Buffer to dilute COX cofactor 200 times. Blend thoroughly. Just before using, mix 5 µl of the provided arachidonic acid with 5 µl of NaOH to make the arachidonic acid solution. Combine quickly using a vortex. To dilute the arachidonic acid/NaOH solution 10 times, add 90 µl of water. There should be 80 µl of reaction mix in each well. Using a multi-channel pipette, add 10 µl of diluted arachidonic acid/NaOH solution to each well to initiate all the reactions at once.
# [7] = 3 h after carrageenan, 50 mg/kg
# [8] = 5 h after carrageenan, 50 mg/kg
smiles,measurement,setting,value
"Cc1ccc(-c2cc(C(F)(F)F)nn2-c2ccc(S(N)(=O)=O)cc2)cc1 [Celecoxib, celecoxib, reference compound]",Average no of ulcer,gastric mucosa,0.48 ± 0.015***^b
same,Average severity,gastric mucosa,0.66 ± 0.026***^b
same,IC50 at 24 h,MTS cytotoxicity assay,149 ± 5.3 µM
same,% inhibition (edema),[1]; 50 mg/kg,97.48%
same,Paw edema thickness ± SEM,"[1]; 1 h after carrageenan, 50 mg/kg",3.43 ± 0.004 mm
same,Paw edema % inhibition,[1]; [7],38.3%
same,Paw edema thickness ± SEM,[1]; [7],3.1 ± 0.011 mm
same,Paw edema % inhibition,[1]; [8],56.3%
same,Paw edema thickness ± SEM,[1]; [8],2.52 ± 0.0095 mm
same,ED50,"[1]; Rattus norvegicus, dose producing 50% edema inhibition",40.4 mg/kg
same,% inhibition (edema),[2],34.97%
same,IC50,iNOS,0.48 ± 0.04 µM
same,IC50,PGE2 [3],0.38 ± 0.027 µM
same,IC50,TNF-α,0.87 ± 0.03 µM
Cc1ccc(N/N=C2\C(=N)N(c3ccc(S(N)(=O)=O)cc3)N=C2N)cc1 [Compound 8a],COX-2 selectivity index (S.I.),COX-2 [4],8.41
N=C1/C(=N\Nc2ccc(Cl)cc2)C(N)=NN1c1ccc(S(N)(=O)=O)cc1 [Compound 8b],COX-2 selectivity index (S.I.),COX-2 [4],10.55
O=C(O)COc1ccc(C(=O)/C=C/c2cn(-c3ccccc3)nc2-c2ccc([N+](=O)[O-])cc2)cc1 [Compound 10],IC50,PGE2 [5],11 µM
"CCOC(=O)COc1ccc(C2=NN(c3ccc(S(C)(=O)=O)cc3)C(c3ccccc3Br)C2)cc1 (centres unmarked) [Compound 15 g, Ethyl 2-(4-(5-(2-bromophenyl)-1-(4-(methylsulfonyl)phenyl)-4,5-dihydro-1H-pyrazol-3-yl)phenoxy)acetate]",COX-2 S.I.,COX-2 [6],15.07
same,IC50,COX-2 [6],0.575 ± 0.019 µM
same,IC50,COX-1,8.59 ± 0.33 µM
"CCOC(=O)COc1ccc(C2=NN(c3ccc(S(C)(=O)=O)cc3)C(c3ccccc3)C2)cc1 (centres unmarked) [Compound 15a, Ethyl 2-(4-(1-(4-(methylsulfonyl)phenyl)-5-phenyl-4,5-dihydro-1H-pyrazol-3-yl)phenoxy) acetate]",COX-2 S.I.,COX-2 [6],1.90
same,IC50,COX-2 [6],3.9 ± 0.129 µM
same,IC50,COX-1,7.42 ± 0.45 µM
"CCOC(=O)COc1ccc(C2=NN(c3ccc(S(C)(=O)=O)cc3)C(c3ccc(C)cc3)C2)cc1 (centres unmarked) [Compound 15b, Ethyl 2-(4-(1-(4-(methylsulfonyl)phenyl)-5-(p-tolyl)-4,5-dihydro-1H-pyrazol-3-yl)phenoxy)acetate]",COX-2 S.I.,COX-2 [6],5.89
same,IC50,COX-2 [6],1.94 ± 0.064 µM
same,IC50,COX-1,11.4 ± 0.42 µM
"CCOC(=O)COc1ccc(C2=NN(c3ccc(S(C)(=O)=O)cc3)C(c3ccc(Cl)cc3)C2)cc1 (centres unmarked) [Compound 15e, Ethyl 2-(4-(5-(4-chlorophenyl)-1-(4-(methylsulfonyl)phenyl)-4,5-dihydro-1H-pyrazol-3-yl)phenoxy)acetate]",COX-2 S.I.,COX-2 [6],4.05
same,IC50,COX-2 [6],0.742 ± 0.025 µM
same,IC50,COX-1,3.01 ± 0.12 µM
"CCOC(=O)COc1ccc(C2=NN(c3ccc(S(C)(=O)=O)cc3)C(c3ccc([N+](=O)[O-])cc3)C2)cc1 (centres unmarked) [Compound 15f, Ethyl 2-(4-(1-(4-(methylsulfonyl)phenyl)-5-(4-nitrophenyl)-4,5-dihydro-1H-pyrazol-3-yl)phenoxy)acetate]",COX-2 S.I.,COX-2 [6],4.30
same,IC50,COX-2 [6],1.59 ± 0.052 µM
same,IC50,COX-1,6.83 ± 0.25 µM
